Data as given in the supplement of paper PMC9386025.

Columns and labels:
Test in all cases: drug sensitivity score (DSS) (DSS (dimensionless)); higher = more sensitive (stronger drug response)
FIMM-PDC1 = patient-derived ovarian cancer cells; details: genetic perturbation: none (patient-derived cell culture)
Outline: (§1)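 Cells, either patient-derived cultures or ovarian cancer cell lines given 100 ng/ml doxycycline for no less than three days to induce shRNA, went into 384-well plates at 1 000 – 1 500 per well over drugs pre-plated in five concentrations across a 10,000-fold range. The plates were held for three days at 37 °C with 5.0 % CO2. Cell viability was then taken from CellTiter-Glo luminescence on a PHERAstar FS. For each drug, a drug sensitivity score from its dose-response curve was obtained by a method described earlier.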

OVSAHO = system: OVSAHO
Outline: as §1

FIMM-PDC4 = patient-derived ovarian cancer cells; details: genetic perturbation: none (patient-derived cell culture)
Outline: as §1

JHOS2 = system: JHOS2
Outline: as §1

FIMM-PDC3 = patient-derived ovarian cancer cells; details: genetic perturbation: none (patient-derived cell culture)
Outline: as §1

FIMM-PDC5 = patient-derived ovarian cancer cells; details: genetic perturbation: none (patient-derived cell culture)
Outline: as §1

FIMM-PDC7 = patient-derived ovarian cancer cells; details: genetic perturbation: none (patient-derived cell culture)
Outline: as §1

Kuramochi = system: Kuramochi
Outline: as §1

FIMM-PDC6 = patient-derived ovarian cancer cells; details: genetic perturbation: none (patient-derived cell culture)
Outline: as §1

[1] = genetic perturbation: DOX-induced PTK7 shRNA knockdown
[2] = genetic perturbation: DOX-induced control shRNA

`CC(C)c1cc(C(=O)N2Cc3ccc(CN4CCN(C)CC4)cc3C2)c(O)cc1O` [Onalespib] gave a drug sensitivity score (FIMM-PDC1) of 10.4, a drug sensitivity score (OVSAHO; [1]) of less than 0 and a drug sensitivity score (OVSAHO; [2]) of 5.4. It also gave a drug sensitivity score (FIMM-PDC4) of 15.1, a drug sensitivity score (JHOS2; [1]) of 10.3 and a drug sensitivity score (JHOS2; [2]) of 11.4. The drug sensitivity score (FIMM-PDC3) was 9.4, the drug sensitivity score (FIMM-PDC5) was 12.5 and the drug sensitivity score (FIMM-PDC7) was 10.6. For the same molecule, the drug sensitivity score (Kuramochi; [1]) was 7.1, the drug sensitivity score (Kuramochi; [2]) was less than 0 and the drug sensitivity score (FIMM-PDC6) was 12.8.
For `COC[C@H](NC(=O)c1cnc(C)s1)C(=O)N[C@@H](COC)C(=O)N[C@@H](Cc1ccccc1)C(=O)[C@@]1(C)CO1` [Oprozomib], the drug sensitivity score (FIMM-PDC1) was 19.5, the drug sensitivity score (OVSAHO; [1]) was 17.3 and the drug sensitivity score (OVSAHO; [2]) was 10.2. It also gave a drug sensitivity score (FIMM-PDC4) of 15.9, a drug sensitivity score (JHOS2; [1]) of 23.6 and a drug sensitivity score (JHOS2; [2]) of 17. The drug sensitivity score (FIMM-PDC3) was 23.6, the drug sensitivity score (FIMM-PDC5) was 11.6 and the drug sensitivity score (FIMM-PDC7) was 19. The drug sensitivity score (Kuramochi; [1]) was 12.6, the drug sensitivity score (Kuramochi; [2]) was 18.3 and the drug sensitivity score (FIMM-PDC6) was 24.9.
`C=CC(=O)Nc1cc(Nc2nccc(-c3cn(C)c4ccccc34)n2)c(OC)cc1N(C)CCN(C)C` [Osimertinib] showed a drug sensitivity score (FIMM-PDC1) of 4, a drug sensitivity score (OVSAHO; [1]) of 5.9 and a drug sensitivity score (OVSAHO; [2]) of 3.3. It also gave a drug sensitivity score (FIMM-PDC4) of 11, a drug sensitivity score (JHOS2; [1]) of 4.1 and a drug sensitivity score (JHOS2; [2]) of 4.1. For the same molecule, the drug sensitivity score (FIMM-PDC3) was 9.5, the drug sensitivity score (FIMM-PDC5) was 14.4 and the drug sensitivity score (FIMM-PDC7) was 9.6. For the same molecule, the drug sensitivity score (Kuramochi; [1]) was 4.8, the drug sensitivity score (Kuramochi; [2]) was 4.3 and the drug sensitivity score (FIMM-PDC6) was 12.5.
Molecule `O=C(O)C(=O)O.[NH-][C@@H]1CCCC[C@H]1[NH-].[Pt+2]` [Oxaliplatin] has a drug sensitivity score (FIMM-PDC1) of 5.4, a drug sensitivity score (OVSAHO; [1]) of 9.9 and a drug sensitivity score (OVSAHO; [2]) of 5.9. The drug sensitivity score (FIMM-PDC4) was 5, the drug sensitivity score (JHOS2; [1]) was 8.2 and the drug sensitivity score (JHOS2; [2]) was 6.2. It also gave a drug sensitivity score (FIMM-PDC3) of 17.3, a drug sensitivity score (FIMM-PDC5) of 11.2 and a drug sensitivity score (FIMM-PDC7) of 11.5. It also gave a drug sensitivity score (Kuramochi; [1]) of 8.65, a drug sensitivity score (Kuramochi; [2]) of 5.8 and a drug sensitivity score (FIMM-PDC6) of 7.8.
Molecule `COc1ccccc1S(=O)(=O)Nc1ccc2c(c1)CN(C)C(=O)N2` [PFI-1] has a drug sensitivity score (FIMM-PDC1) of 1.2, a drug sensitivity score (OVSAHO; [1]) of 4.4 and a drug sensitivity score (OVSAHO; [2]) of 8.4. It also gave a drug sensitivity score (FIMM-PDC4) of 0.9, a drug sensitivity score (JHOS2; [1]) of 2.1 and a drug sensitivity score (JHOS2; [2]) of 3.4. For the same molecule, the drug sensitivity score (FIMM-PDC3) was 1.6, the drug sensitivity score (FIMM-PDC5) was 4.9 and the drug sensitivity score (FIMM-PDC7) was 1.3. The drug sensitivity score (Kuramochi; [1]) was 7.65, the drug sensitivity score (Kuramochi; [2]) was 5 and the drug sensitivity score (FIMM-PDC6) was 1.3.
`CN1CCN(c2cc(C(=O)Nc3ccc4c(c3)-c3c(c(C(N)=O)nn3-c3ccc(F)cc3)CC4)c(Cl)cn2)CC1` [PHA 408] was tested, and the drug sensitivity score (FIMM-PDC1) was less than 0, the drug sensitivity score (OVSAHO; [1]) was 7.3 and the drug sensitivity score (OVSAHO; [2]) was 2.8. The drug sensitivity score (FIMM-PDC4) was 2.7, the drug sensitivity score (JHOS2; [1]) was 8.3 and the drug sensitivity score (JHOS2; [2]) was less than 0. It also gave a drug sensitivity score (FIMM-PDC3) of 4.7, a drug sensitivity score (FIMM-PDC5) of 3.8 and a drug sensitivity score (FIMM-PDC7) of 2.8. The drug sensitivity score (Kuramochi; [1]) was 2.75, the drug sensitivity score (Kuramochi; [2]) was 2.3 and the drug sensitivity score (FIMM-PDC6) was 4.8.
Molecule `COc1cc(Br)c(Nc2nc(-c3c(C)nc4ncccn34)cs2)c(Br)c1` [PTC-209] has a drug sensitivity score (FIMM-PDC1) of 6.1, a drug sensitivity score (OVSAHO; [1]) of 1.5 and a drug sensitivity score (OVSAHO; [2]) of 2.3. For the same molecule, the drug sensitivity score (FIMM-PDC4) was 2.2, the drug sensitivity score (JHOS2; [1]) was 3.7 and the drug sensitivity score (JHOS2; [2]) was 9.7. The drug sensitivity score (FIMM-PDC3) was 10, the drug sensitivity score (FIMM-PDC5) was 4.6 and the drug sensitivity score (FIMM-PDC7) was 6.3. The drug sensitivity score (Kuramochi; [1]) was 3, the drug sensitivity score (Kuramochi; [2]) was 1.5 and the drug sensitivity score (FIMM-PDC6) was 4.3.
With `CC(=O)O[C@H]1C(=O)[C@@]2(C)[C@H]([C@H](OC(=O)c3ccccc3)[C@]3(O)C[C@H](OC(=O)[C@H](O)[C@@H](NC(=O)c4ccccc4)c4ccccc4)C(C)=C1C3(C)C)[C@]1(OC(C)=O)CO[C@@H]1C[C@@H]2O` [Paclitaxel] the drug sensitivity score (FIMM-PDC1) was 15.9, the drug sensitivity score (OVSAHO; [1]) was 11.1 and the drug sensitivity score (OVSAHO; [2]) was 15.6. The drug sensitivity score (FIMM-PDC4) was 18.7, the drug sensitivity score (JHOS2; [1]) was 17.3 and the drug sensitivity score (JHOS2; [2]) was 11.7. For the same molecule, the drug sensitivity score (FIMM-PDC3) was 18.4, the drug sensitivity score (FIMM-PDC5) was 20.8 and the drug sensitivity score (FIMM-PDC7) was 7. For the same molecule, the drug sensitivity score (Kuramochi; [1]) was 18.1, the drug sensitivity score (Kuramochi; [2]) was 3.1 and the drug sensitivity score (FIMM-PDC6) was 10.5.
`C1=N/C2=N/c3ccc(OCCN4CCCC4)c(c3)COC/C=C/COCc3cccc(c3)C(=C1)N2` [Pacritinib] was tested, and the drug sensitivity score (FIMM-PDC1) was 6.7, the drug sensitivity score (OVSAHO; [1]) was 10.1 and the drug sensitivity score (OVSAHO; [2]) was 9.6. The drug sensitivity score (FIMM-PDC4) was 7.6, the drug sensitivity score (JHOS2; [1]) was 9.3 and the drug sensitivity score (JHOS2; [2]) was 10.9. The drug sensitivity score (FIMM-PDC3) was 7.7, the drug sensitivity score (FIMM-PDC5) was 10.6 and the drug sensitivity score (FIMM-PDC7) was 5. For the same molecule, the drug sensitivity score (Kuramochi; [1]) was 7.05, the drug sensitivity score (Kuramochi; [2]) was 9.3 and the drug sensitivity score (FIMM-PDC6) was 7.5.
For `Cc1[nH]c2ccccc2c1CCNCc1ccc(/C=C/C(=O)NO)cc1` [Panobinostat], the drug sensitivity score (FIMM-PDC1) was 11, the drug sensitivity score (OVSAHO; [1]) was 13.5 and the drug sensitivity score (OVSAHO; [2]) was 11.2. For the same molecule, the drug sensitivity score (FIMM-PDC4) was 8.1, the drug sensitivity score (JHOS2; [1]) was 13 and the drug sensitivity score (JHOS2; [2]) was 13.6. It also gave a drug sensitivity score (FIMM-PDC3) of 13.7, a drug sensitivity score (FIMM-PDC5) of 15 and a drug sensitivity score (FIMM-PDC7) of 8.2. For the same molecule, the drug sensitivity score (Kuramochi; [1]) was 19, the drug sensitivity score (Kuramochi; [2]) was 7.2 and the drug sensitivity score (FIMM-PDC6) was 12.4.
Work on `Nc1nc2[nH]cc(CCc3ccc(C(=O)N[C@@H](CCC(=O)O)C(=O)O)cc3)c2c(=O)[nH]1` [Pemetrexed] yielded a drug sensitivity score (FIMM-PDC1) of 2.05, a drug sensitivity score (OVSAHO; [1]) of less than 0 and a drug sensitivity score (OVSAHO; [2]) of 1.5. For the same molecule, the drug sensitivity score (FIMM-PDC4) was less than 0, the drug sensitivity score (JHOS2; [1]) was 0.4 and the drug sensitivity score (JHOS2; [2]) was less than 0. It also gave a drug sensitivity score (FIMM-PDC3) of less than 0, a drug sensitivity score (FIMM-PDC5) of less than 0 and a drug sensitivity score (FIMM-PDC7) of less than 0. For the same molecule, the drug sensitivity score (Kuramochi; [1]) was 0.6, the drug sensitivity score (Kuramochi; [2]) was 7.9 and the drug sensitivity score (FIMM-PDC6) was 1.5.
In the case of `NS(=O)(=O)OC[C@@H]1C[C@@H](n2ccc3c(N[C@H]4CCc5ccccc54)ncnc32)C[C@@H]1O` [Pevonedistat], the drug sensitivity score (FIMM-PDC1) is reported as 3.75, the drug sensitivity score (OVSAHO; [1]) is reported as 3.7 and the drug sensitivity score (OVSAHO; [2]) is reported as 6.5. It also gave a drug sensitivity score (FIMM-PDC4) of 9.4, a drug sensitivity score (JHOS2; [1]) of 16.2 and a drug sensitivity score (JHOS2; [2]) of 12.4. For the same molecule, the drug sensitivity score (FIMM-PDC3) was 5.2, the drug sensitivity score (FIMM-PDC5) was 5.7 and the drug sensitivity score (FIMM-PDC7) was 12.2. For the same molecule, the drug sensitivity score (Kuramochi; [1]) was 6.65, the drug sensitivity score (Kuramochi; [2]) was 2.6 and the drug sensitivity score (FIMM-PDC6) was 7.1.
In the case of `CS(=O)(=O)N1CCN(Cc2cc3nc(-c4cccc5[nH]ncc45)nc(N4CCOCC4)c3s2)CC1` [Pictilisib], the drug sensitivity score (FIMM-PDC1) is reported as 8.15, the drug sensitivity score (OVSAHO; [1]) is reported as 11.7 and the drug sensitivity score (OVSAHO; [2]) is reported as 14.1. It also gave a drug sensitivity score (FIMM-PDC4) of 15.1, a drug sensitivity score (JHOS2; [1]) of 5.9 and a drug sensitivity score (JHOS2; [2]) of 9. The drug sensitivity score (FIMM-PDC3) was 8.3, the drug sensitivity score (FIMM-PDC5) was 16.5 and the drug sensitivity score (FIMM-PDC7) was 12.1. The drug sensitivity score (Kuramochi; [1]) was 14, the drug sensitivity score (Kuramochi; [2]) was 7.2 and the drug sensitivity score (FIMM-PDC6) was 11.5.
